Measurements published in PMC10457016 (Journal of fluorine chemistry, 2023).
≈ marks a conversion by molar mass, not a printed value. Where two headings read alike, the source gives them in different places.

How the values were obtained:
[1] = Solubility in sodium phosphate buffer; type: physicochemical
human sEH = target: T1, human sEH (Homo sapiens, UniProt P34913); assay: Determination of inhibitory potency; type: biochemical
T1 sequence (P34913 1-555): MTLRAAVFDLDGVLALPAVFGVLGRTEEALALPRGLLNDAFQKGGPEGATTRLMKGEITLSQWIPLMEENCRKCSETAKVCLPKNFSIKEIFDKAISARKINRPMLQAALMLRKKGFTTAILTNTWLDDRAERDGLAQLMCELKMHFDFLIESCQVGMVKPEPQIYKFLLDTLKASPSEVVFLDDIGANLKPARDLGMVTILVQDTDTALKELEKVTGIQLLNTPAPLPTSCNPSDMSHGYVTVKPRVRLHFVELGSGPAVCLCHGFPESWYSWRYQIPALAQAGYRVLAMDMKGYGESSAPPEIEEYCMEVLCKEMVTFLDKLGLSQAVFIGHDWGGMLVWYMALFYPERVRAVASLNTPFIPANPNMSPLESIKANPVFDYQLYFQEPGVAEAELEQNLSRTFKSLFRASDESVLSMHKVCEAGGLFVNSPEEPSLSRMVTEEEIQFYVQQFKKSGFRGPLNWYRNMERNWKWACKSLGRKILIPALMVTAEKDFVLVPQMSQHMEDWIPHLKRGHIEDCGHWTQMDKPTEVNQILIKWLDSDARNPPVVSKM

[2] = sodium phosphate buffer, pH 7.4, aqueous buffer
[3] = sodium phosphate buffer (pH 7.4, 0.1 M) containing 1% of DMSO
[4] = kinetic fluorescent assay, substrate 5 μM, human sEH 1 nM, means of three separate experiments

Row | Structure (SMILES) | Solubility [1, 2] | IC50 (human sEH) | Solubility [1, 3] | IC50 (human sEH; [4])
1 | Cn1nc(CNC(=O)NCC23CC4CC(CC(C4)C2)C3)c(Cl)c1Cl [4f, 1-[(Adamantan-1-yl)methyl]-3-[(4,5-dichloro-1-methyl-1H-pyrazol-3-yl)methyl]urea] | 120 to 130 µM (≈ 44.6 to 48.3 µg/mL) | 1.2 nM |  | 
2 | O=C(NCc1ccn(CCF)n1)NCC12CC3CC(CC(C3)C1)C2 [4a, 1-[(Adamantan-1-yl)methyl]-3-{[1-(2-fluoroethyl)-1H-pyrazol-3-yl]methyl}urea] | 650 to 660 µM (≈ 217 to 221 µg/mL) | 13.8 nM |  | 
3 | O=C(NCc1ccn(CC(F)(F)F)n1)NC12CC3CC(CC(C3)C1)C2 [3c, 1-Adamantyl-3-{[1-(2,2,2-trifluoroethyl)-1H-pyrazol-3-yl]methyl}urea] |  |  | 390 to 400 µM | 9.6 nM
4 | O=C(NCc1ccn(CC(F)F)n1)NCC12CC3CC(CC(C3)C1)C2 [4b, 1-[(Adamantan-1-yl)methyl]-3-{[1-(2,2-difluoroethyl)-1H-pyrazol-3-yl]methyl}urea] | 270 to 280 µM (≈ 95.2 to 98.7 µg/mL) | 27.5 nM |  | 
5 | O=C(NCc1ccn(CC(F)(F)F)n1)NCC12CC3CC(CC(C3)C1)C2 [4c, 1-[(Adamantan-1-yl)methyl]-3-{[1-(2,2,2-trifluoroethyl)-1H-pyrazol-3-yl]methyl}urea] | 740 to 750 µM (≈ 274 to 278 µg/mL) | 7.3 nM |  | 
6 | O=C(NCc1ccn(CC(F)F)n1)NC12CC3CC(CC(C3)C1)C2 [3b, 1-Adamantyl-3-{[1-(2,2-difluoroethyl)-1H-pyrazol-3-yl]methyl}urea] |  |  | 300 to 310 µM | 12 nM
7 | Cn1nc(CNC(=O)NCC23CC4CC(CC(C4)C2)C3)cc1C(F)(F)F [4e, 1-[(Adamantan-1-yl)methyl]-3-[(1-metyl-5-trifluoromethyl-1H-pyrazol-3-yl)methyl]urea] |  |  | 160 to 170 µM | 22.5 nM
8 | Cn1nc(CNC(=O)NC23CC4CC(CC(C4)C2)C3)cc1C(F)(F)F [3e, 1-Adamantyl-3-[(1-metyl-5-trifluoromethyl-1H-pyrazol-3-yl)methyl]urea] |  |  | 160 to 170 µM | 9.9 nM
9 | Cn1nc(CNC(=O)NC23CC4CC(CC(C4)C2)C3)c(Cl)c1Cl [3f, 1-Adamantyl-3-[(4,5-dichloro-1-methyl-1H-pyrazol-3-yl)methyl]urea] |  |  | 250 to 260 µM | 0.8 nM
10 | O=C(NCc1ccn(CCF)n1)NC12CC3CC(CC(C3)C1)C2 [3a, 1-Adamantyl-3-{[1-(2-fluoroethyl)-1H-pyrazol-3-yl]methyl}urea] |  |  | 440 to 450 µM | 10.2 nM
11 | O=C(NCc1ccn(C(F)F)n1)NC12CC3CC(CC(C3)C1)C2 [3d, 1-Adamantyl-3-[(1-difluoromethyl-1H-pyrazol-3-yl)methyl]urea] |  |  | 670 to 680 µM | 8.8 nM
12 | O=C(NCc1ccn(C(F)F)n1)NCC12CC3CC(CC(C3)C1)C2 [4d, 1-[(Adamantan-1-yl)methyl]-3-[(1-difluoromethyl-1H-pyrazol-3-yl)methyl]urea] | 570 to 580 µM (≈ 193 to 196 µg/mL) | 15 nM |  | 
